Measured values taken from ChEMBL document CHEMBL2046440, “C-Aryl 5a-carba-β-d-glucopyranosides as novel sodium glucose cotransporter 2 (SGLT2) inhibitors for the treatment of type 2 diabetes” (Bioorg Med Chem, 2012).
The source made the active and inactive calls. No cut-off for these calls is given here.

Tests used:
[1] = target: T1, Sodium/glucose cotransporter 2 (Homo sapiens, UniProt P31639); experiment: Inhibition of human SGLT2 expressed in CHO-K1 cells by [14C]AMG uptake assay; type: cell-based
T1 sequence (P31639 whole entry): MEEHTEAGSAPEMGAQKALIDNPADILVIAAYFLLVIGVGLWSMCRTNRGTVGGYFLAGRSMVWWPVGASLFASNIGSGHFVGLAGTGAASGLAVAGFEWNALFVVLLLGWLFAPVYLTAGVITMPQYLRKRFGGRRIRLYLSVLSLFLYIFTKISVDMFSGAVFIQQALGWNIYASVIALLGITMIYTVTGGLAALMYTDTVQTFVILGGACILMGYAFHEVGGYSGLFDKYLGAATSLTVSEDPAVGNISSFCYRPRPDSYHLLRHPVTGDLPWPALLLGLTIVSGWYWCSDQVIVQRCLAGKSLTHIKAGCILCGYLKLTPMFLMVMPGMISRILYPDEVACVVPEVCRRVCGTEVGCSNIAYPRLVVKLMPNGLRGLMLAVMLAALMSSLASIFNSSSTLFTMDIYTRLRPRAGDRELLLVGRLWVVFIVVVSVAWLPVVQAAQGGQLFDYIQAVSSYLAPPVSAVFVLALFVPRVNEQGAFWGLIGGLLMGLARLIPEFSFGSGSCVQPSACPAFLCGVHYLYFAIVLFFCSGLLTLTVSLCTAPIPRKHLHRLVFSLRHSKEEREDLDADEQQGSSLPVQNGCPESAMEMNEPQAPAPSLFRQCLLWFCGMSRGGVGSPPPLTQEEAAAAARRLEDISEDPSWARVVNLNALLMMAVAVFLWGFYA

Cytochrome P450 3A4 [2] = target: T2, Cytochrome P450 3A4 (Homo sapiens, UniProt P08684); experiment: Inhibition of CYP3A4 using BFC substrate in which compound added to reaction mixture before addition of BFC substrate by fluorometric assay; type: ADME
T2 sequence (P08684 whole entry): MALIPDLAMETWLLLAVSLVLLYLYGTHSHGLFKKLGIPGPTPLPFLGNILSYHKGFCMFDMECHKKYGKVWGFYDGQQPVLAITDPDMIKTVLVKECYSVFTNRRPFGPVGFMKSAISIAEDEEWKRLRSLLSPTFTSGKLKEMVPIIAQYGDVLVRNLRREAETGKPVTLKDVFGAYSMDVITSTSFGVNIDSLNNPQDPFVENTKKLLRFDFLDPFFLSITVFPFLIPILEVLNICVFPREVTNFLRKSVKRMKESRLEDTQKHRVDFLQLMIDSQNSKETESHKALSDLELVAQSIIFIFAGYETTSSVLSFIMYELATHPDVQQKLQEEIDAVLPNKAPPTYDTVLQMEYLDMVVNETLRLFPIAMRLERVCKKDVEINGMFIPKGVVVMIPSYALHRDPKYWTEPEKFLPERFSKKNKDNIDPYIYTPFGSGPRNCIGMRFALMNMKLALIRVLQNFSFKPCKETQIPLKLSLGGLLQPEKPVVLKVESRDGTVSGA

Cytochrome P450 3A4 [3] = target: T2, Cytochrome P450 3A4; experiment: Inhibition of CYP3A4 using BFC substrate in which compound added to reaction mixture simultaneously with BFC substrate by fluorometric assay; type: ADME
Mus musculus [4] = experiment: (§1) Apparent volume of distribution during terminal phase in db/db mouse at 10 mg/kg, po administered as single dose by LC-MS/MS system method; type: ADME, organism-based; design: dose 10 mg/kg, route oral; settings: in vivo
[5] = Tmax in db/db mouse at 10 mg/kg, po administered as single dose by LC-MS/MS system method; type: ADME, organism-based; design: dose 10 mg/kg, route oral; settings: in vivo
Mus musculus [6] = experiment: Hypoglycemic effect in db/db mouse assessed as reduction in glucose AUC (0 to 8 hrs) at 100 mg/kg, po administered as single dose by hexokinase method relative to untreated control; type: functional; design: scale not given: the % may be the effect or the level left
Mus musculus [7] = experiment: (§2) Cmax in db/db mouse at 10 mg/kg, po administered as single dose by LC-MS/MS system method; type: ADME, organism-based; design: dose 10 mg/kg, route oral; settings: in vivo
Mus musculus [8] = experiment: (§3) Half life in db/db mouse at 10 mg/kg, po administered as single dose by LC-MS/MS system method; type: ADME, organism-based; design: dose 10 mg/kg, route oral; settings: in vivo
[9] = AUC (infinity) in db/db mouse at 10 mg/kg, po administered as single dose by LC-MS/MS system method; type: ADME, organism-based; design: time infinity, dose 10 mg/kg, route oral; settings: plasma
Mus musculus [10] = experiment: Hypoglycemic effect in db/db mouse assessed as reduction in glucose level at 30 mg/kg, po measured 4 hrs post dose administered as single dose by hexokinase method; type: functional, organism-based; design: dose 30 mg/kg
Mus musculus [11] = experiment: Hypoglycemic effect in db/db mouse assessed as reduction in glucose AUC (0 to 8 hrs) at 30 mg/kg, po administered as single dose by hexokinase method relative to untreated control; type: functional; design: scale not given: the % may be the effect or the level left
Mus musculus [12] = experiment: Hypoglycemic effect in db/db mouse assessed as reduction in glucose level at 30 mg/kg, po measured 8 hrs post dose administered as single dose by hexokinase method; type: functional, organism-based; design: dose 30 mg/kg
[13] = as §1; type: ADME, organism-based; design: dose 10 mg/kg, route oral; settings: db/db, in vivo, read-out: Vz/F
[14] = as §2; type: ADME, organism-based; design: dose 10 mg/kg, route oral; settings: db/db, in vivo
[15] = as §3; type: ADME, organism-based; design: dose 10 mg/kg, route oral; settings: db/db, in vivo
[16] = Apparent oral clearance in db/db mouse at 10 mg/kg, po administered as single dose by LC-MS/MS system method; type: ADME, organism-based; design: dose 10 mg/kg, route oral; settings: in vivo
CYP3A4 = CYP3A4 (Homo sapiens, UniProt P08684); experiment: in vitro; settings: probe BFC
CYP3A4, sequence (P08684 whole entry): as above
Description: Potency index, ratio of IC50 for CYP3A4 (unknown origin) using BFC substrate in which compound added to reaction mixture simultaneously with BFC substrate to IC50 for CYP3A4 using BFC substrate in which compound added to reaction mixture before addition of BFC substrate

Cytochrome P450 3A4 [17] = target: T2, Cytochrome P450 3A4; experiment: Inhibition of CYP3A4 using BFC substrate by fluorometric assay; type: ADME; settings: TDE = time-dependent effect

Compound	IC50 [1] [µM]	IC50 (Cytochrome P450 3A4 [2]) [µM]	IC50 (Cytochrome P450 3A4 [3]) [µM]	further results
CCc1ccc(Cc2cc([C@]3(O)C[C@H](CO)[C@@H](O)[C@H](O)[C@H]3O)c(OC)cc2OC)cc1	0.01	> 50	29	–
CCc1ccc(Cc2cc([C@]3(O)C[C@H](CO)[C@@H](O)[C@H](O)[C@H]3O)ccc2OC)cc1	0.1	–	–	–
COc1ccc(Cc2ccccc2O[C@@H]2C[C@H](CO)[C@@H](O)[C@H](O)[C@H]2O)cc1	–	–	–	Vz/F (Mus musculus [4]): 12.586 L/kg; Tmax [5]: 15 min; Activity (Mus musculus [6]): 41.6%; Cmax (Mus musculus [7]): 1640 ng/mL; t1/2 (Mus musculus [8]): 161 min; AUC(0-inf) [9]: 3070 ng·h/mL
CCc1ccc(Cc2cc([C@@H]3C[C@H](CO)[C@@H](O)[C@H](O)[C@H]3O)ccc2OC)cc1	0.0083	–	–	–
COc1ccc(Cc2cccc([C@@H]3C[C@H](CO)[C@@H](O)[C@H](O)[C@H]3O)c2)cc1	0.073	> 50	> 50	–
CCc1ccc(Cc2cccc([C@@H]3C[C@H](CO)[C@@H](O)[C@H](O)[C@H]3O)c2)cc1	0.049	> 50	> 50	–
CCOc1ccc(Cc2ccc(CC)cc2)cc1[C@]1(O)C[C@H](CO)[C@@H](O)[C@H](O)[C@H]1O	0.0099	–	–	Activity (Mus musculus [10]): Active; Activity (Mus musculus [11]): 39.1%; Activity (Mus musculus [12]): inactive
CCc1ccc(Cc2ccc(OC)c([C@]3(O)C[C@H](CO)[C@@H](O)[C@H](O)[C@H]3O)c2)cc1	0.014	–	–	–
CCOc1ccc(Cc2ccc(CC)cc2)cc1[C@@H]1C[C@H](CO)[C@@H](O)[C@H](O)[C@H]1O	0.019	> 50	36.6	Vd/F [13]: 3.63 L/kg; Tmax [5]: 15 min; Activity (Mus musculus [10]): Active; Cmax [14]: 3680 ng/mL; Activity (Mus musculus [11]): 42.6%; half-life [15]: 94.2 min; CL/F [16]: 26.7 mL/min/kg; Activity (Mus musculus [12]): Active; AUC(0-inf) [9]: 6240 ng·h/mL
CCc1ccc(Cc2ccc(C)c([C@@H]3C[C@H](CO)[C@@H](O)[C@H](O)[C@H]3O)c2)cc1	0.052	–	–	–
CCc1ccc(Cc2cc([C@@H]3C[C@H](CO)[C@@H](O)[C@H](O)[C@H]3O)c(OC)cc2OC)cc1	0.0085	40.3	25.7	IC50 shift (CYP3A4): 0.6
OC[C@H]1C[C@@H](c2cccc(Cc3ccc(C4CC4)cc3)c2)[C@H](O)[C@@H](O)[C@@H]1O	0.011	33	76	IC50 shift (CYP3A4): 2.3; inhibition (INH) (Cytochrome P450 3A4 [17]): tde
CCc1ccc(Cc2ccc(OC)c([C@@H]3C[C@H](CO)[C@@H](O)[C@H](O)[C@H]3O)c2)cc1	0.012	> 50	> 50	–
Cc1ccc([C@@H]2O[C@H](CO)[C@@H](O)[C@H](O)[C@H]2O)cc1Cc1ccc(-c2ccc(F)cc2)s1 [CANAGLIFLOZIN ANHYDROUS]	0.0067	–	–	–
CCOC(=O)OC[C@H]1O[C@@H](Oc2ccccc2Cc2ccc(OC)cc2)[C@H](O)[C@@H](O)[C@@H]1O [SERGLIFLOZIN ETABONATE]	–	–	–	Vz/F (Mus musculus [4]): 3.315 L/kg; Tmax [5]: 15 min; Activity (Mus musculus [10]): Active; Cmax (Mus musculus [7]): 3360 ng/mL; t1/2 (Mus musculus [8]): 49.2 min; Activity (Mus musculus [12]): inactive; AUC(0-inf) [9]: 2970 ng·h/mL
CCc1ccc(Cc2ccc(C)c([C@]3(O)C[C@H](CO)[C@@H](O)[C@H](O)[C@H]3O)c2)cc1	0.17	–	–	–
